Laboratory results as given in the METLIN SMRT retention time set (Domingo-Almenara et al. 2019).

assay: gradient 5% acetonitrile 3 min, to 50% in 2 min, to 85% in 15 min, held 3 min, 100 µL/min; conditions: column: Zorbax Extend-C18 2.1 x 50 mm; eluents: water / acetonitrile, 0.1% formic acid
How it was run: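 Values are retention times taken from adduct peaks that software picked and an analyst inspected. The pure standards were run as mixtures of ~100 molecules on HPLC linked to a quadrupole time-of-flight mass spectrometer, in positive and negative ionization mode. A Zorbax Extend-C18 column (2.1 × 50 mm, 1.8 μm) was used at 100 μL/min with water and acetonitrile, each including 0.1% formic acid.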

SMILES | RP-LC retention time
COC(=O)c1c(NCc2ccccc2)c2cccc(Cl)c2[nH]c1=O | 786 s
O=C([C@@H]1C[C@H](F)CN1S(=O)(=O)c1ccc(F)c(F)c1)N1CCc2ccccc2C1 | 943 s
CC(C)NCc1ccc(-c2ccccc2)o1 | 612 s
CCCN1CCN(c2cc(C(=O)O)c3cc(NS(=O)(=O)c4cc(F)ccc4F)ccc3n2)CC1 | 618 s
Nc1ncnc2sc3c(c12)CCCC3 | 588 s
O=C(NCc1cccc(Cl)c1)c1c(O)c2cccnc2n(-c2cccc(F)c2)c1=O | 1240 s
CSc1cccc(NC(=O)Cn2c(N3CCOCC3)nc(C)cc2=O)c1 | 694 s
O=C(Nc1c(F)cccc1F)N1CCC(c2ccccc2)C1 (centres undefined) | 767 s
COCC1CN(C(=O)c2sccc2C)CC12CCNCC2 (centres undefined) | 575 s
CC(C)OCCCNC(=O)c1c2c(cn(-c3ccccc3)c1=O)C(=O)CC(C)(C)C2 | 878 s
CN(C)c1ccc2c(c1)CN(C(=O)c1cnn(C)c1)CCO2 | 560 s
Cc1ccc(N2CCC(NC(=O)Cc3cccc(F)c3)C2=O)cc1 (centres undefined) | 829 s
COc1cc(-c2nnc(-c3ccc(C)c(S(=O)(=O)N4CCCCC4)c3)o2)cc(OC)c1OC | 1090 s
COc1cccc2c(NC(=O)c3ccccc3F)cc(C)nc12 | 579 s
CCC(C(=O)N1CCN(C(=O)c2ccco2)CC1)n1c2ccccc2c2cnn(C)c(=O)c21 (centres undefined) | 801 s
COc1ccc(OC)c(CNC(=O)C2CCN(S(=O)(=O)c3ccc4c(c3)NC(=O)CO4)CC2)c1 | 721 s
CS(=O)(=O)Nc1ccc(Cc2noc(-c3ccc4[nH]cc(CCN)c4c3)n2)cc1 | 686 s
CCn1ccc(C(=O)NC2CCN(C3=NS(=O)(=O)C(c4ccccc4)=C3C)CC2)n1 | 746 s
COc1cccc(-n2c(=O)c(C(=O)Nc3cc(F)cc(F)c3)c(O)c3cccnc32)c1 | 1210 s
Cc1ccc(-c2csc(NC(=O)c3sc(-c4ccccc4)nc3C)n2)cc1 | 1300 s
COC(=O)c1ccc(Cl)cc1NC(=O)N1CCCn2nc(-c3cccs3)cc2C1 | 1120 s

SMILES | RP-LC retention time
Cc1ccc(S(=O)(=O)N2CCN(C3=CC4=NC(C)CN4C=N3)CC2)cc1C (centres undefined) | 698 s
Cc1cc(NC(=O)c2c(O)c3cccnc3n(-c3ccccc3)c2=O)ccc1F | 1160 s
Cc1ccc(C(=O)N2CCn3c(nnc3C(C)C)C2)s1 | 625 s
Cc1cc(S(=O)(=O)Nc2ccc3c(c2)CCC(=O)N3CC(C)C)ccc1F | 909 s
Cc1cc(S(=O)(=O)N2CCc3nn(C)c(=O)n3CC2)ccc1Cl | 744 s
CCCN(C(=O)Cc1ccc(OC)cc1)c1nc(-c2ccccc2)cs1 | 1420 s
Cc1ccc(CN2CCN(C3CCN(C(=O)Nc4ccc5c(c4)OCCO5)CC3)C2=O)cc1 | 765 s
Cc1csc(-c2cc(S(=O)(=O)NCCCN3CCOCC3)cn2CC(=O)N2CCCCC2)n1 | 667 s
Cc1c2cnn(CC(=O)NCC3CCCO3)c(=O)c2c(C)n1Cc1ccccc1F (centres undefined) | 747 s
Cc1nnc(-c2cc(C)n(CC(=O)Nc3ccc(Cl)cc3C)c2C)o1 | 810 s
CC(Cc1ccco1)NC(=O)Cn1c2ccccc2c2cnn(C)c(=O)c21 (centres undefined) | 790 s
COc1cccc(-c2c(C(=O)O)nnn2Cc2ccccc2F)c1 | 776 s
O=C(NCCc1csc(-c2ccccc2)n1)C1CCN(C(=O)c2ccc(F)c(Cl)c2)CC1 | 1020 s
CCN1C(=O)c2ccccc2Oc2ccc(C(=O)NCCC3=CCCCC3)cc21 | 639 s
COc1ccc(CNC(=O)C2(C)CCCN(S(=O)(=O)c3ccc(Br)cc3)C2)cc1 (centres undefined) | 1020 s
Cc1cc(C)c(NC(=O)Cn2nc3cc(C)nc(-c4ccccc4)n3c2=O)c(C)c1 | 867 s
CCOC(=O)C1CCN(C(=O)c2ccc3c(c2)N(CC(=O)N2CCCC2)C(=O)CO3)CC1 | 678 s
Cc1nc(-c2cc3cccc(C)c3nc2N2CCN(C)CC2)no1 | 665 s
O=S(=O)(Nc1ccc(F)cc1F)c1ccc(-c2nnc(C3CCC3)o2)o1 | 879 s
CC(C)CCNC(=O)N1CCN(Cc2nc3ccc(Cl)cc3o2)CC1 | 746 s
CN1CCN(C(=O)c2nnc(-c3ccc(S(=O)(=O)N4CCCC4)cc3)o2)CC1 | 594 s

SMILES | RP-LC retention time
Cc1nnc(-c2ccc3ccn(CC(=O)N4CCN(c5ccccc5)CC4)c3c2)o1 | 801 s
CCOC(=O)c1cn2nc(SCc3ccccc3)nc2nc1C | 1000 s
Cc1ccc(N2CC(C(=O)N3CCCC3)CC2=O)cc1 (centres undefined) | 640 s
O=C(c1cnccn1)N1CCC(N2C(=O)C(OCC3CC3)C23CCCCC3)CC1 (centres undefined) | 752 s
O=C(NC1CC1)c1n[nH]c2c1CCCC2 | 636 s
C=CCNc1nnc(SCC(=O)N2CCC(C(N)=O)CC2)s1 | 572 s
CCN(CC)C(=O)c1ccc(-c2nc3cc(NS(=O)(=O)c4ccccc4)ccc3n2C)cc1 | 671 s
CCC(C)NC(=O)N1CCN(c2cc(-c3cc(F)ccc3OC)ncn2)CC1 (centres undefined) | 636 s
COc1ccc(-c2nnc(-c3cc(S(=O)(=O)N4CCSCC4)ccc3Cl)o2)cc1 | 1080 s
CC(C)CCNC(=O)C1(C)CCC(=O)N1CCc1c[nH]c2ccccc12 (centres undefined) | 786 s
Cc1ccc(C)c(NC(=O)C2CCCN(c3ncnc4c3nc3n4CCCCC3)C2)c1 (centres undefined) | 793 s
COc1cc([C@@H]2c3cc4c(cc3[C@H](O)[C@@H](CO)[C@@H]2C(=O)NCCc2ccccc2)OCO4)cc(OC)c1OC | 745 s
CCOCCCNC(=O)C1CCCN(c2nnc(C)c3c(C)n(-c4ccc(Cl)cc4)nc23)C1 (centres undefined) | 688 s
CC(C)CC(=O)Nc1ccc2c(c1)nc(CN1CCCC1)n2C(C)C | 612 s
O=C(c1ccoc1)N1CC(Oc2cccc(-c3nc(-c4ccccc4)no3)c2)C1 | 1070 s
CC1CCC(C(=O)Nc2cccc(-c3nnc4n3CCCC4)c2)CC1 (centres undefined) | 756 s
CN(Cc1ccccc1)C(=O)C(=O)c1c[nH]c2ccccc12 | 800 s
O=C(Nc1ccccc1)N1CCC(N2CC(OCC3CC3)C23CCOCC3)CC1 (centres undefined) | 635 s
COc1cccc(Sc2ccc(N3CCC(C(=O)N4CCN(c5ccccn5)CC4)CC3)nn2)c1 | 616 s
COc1ccc(C(=O)CSc2nc3ccccc3[nH]2)cc1 | 647 s

Continued, values first:

RP-LC retention time | SMILES
900 s | Cc1ccc(Nc2nc(-c3ccccc3)c(CC(=O)O)s2)cc1
948 s | CCOC(=O)c1noc2ncnc(N(CC)c3ccccc3)c12
924 s | CCn1cc(-c2nc(CC(=O)NCc3ccccc3Cl)cs2)c2cccnc21
578 s | Cn1cnc2cc(CNC(=O)c3ccc(C#N)cc3)ccc21
816 s | CN(CCc1noc(-c2ccc(C(=O)N3CCCC3)cc2)n1)C(=O)Cc1ccc(Cl)cc1
1030 s | Cc1ccc(NC(=O)c2cc(C)n3nccc3n2)cc1C
872 s | Cc1[nH]c(C(=O)N2CCC(CC(=O)NC3CCCCCC3)CC2)c(C)c1C
633 s | CCN1CCN(c2nccc(-c3cnc4nc(-c5ccccc5)nn4c3C)n2)CC1
619 s | COc1ccc(-c2ccc(=O)n(CCCC(=O)Nc3ccccc3C(N)=O)n2)cc1OC
944 s | COc1cccc(CNC(=O)Cn2c(=O)cc(-c3nc(C(C)C)no3)c3ccccc32)c1
942 s | CCc1nn2c(CNS(=O)(=O)c3ccc(F)cc3F)c(-c3ccccc3)nc2s1
987 s | O=C(NCc1csc(-c2ccccc2)n1)C1CCN(S(=O)(=O)c2ccc(F)c(Cl)c2)CC1
1160 s | c1ccc(-c2nnc(-c3cccnc3NCc3ccc4c(c3)OCO4)o2)cc1
648 s | Cn1cc(CC(=O)NCc2ccc3c(c2)OCO3)c2cccnc21
555 s | Cc1cc(C)c2c(N3CCOCC3)nc(C(=O)NCCN3CCCCCC3)nc2n1
855 s | CCc1cc(C2CCCN2C(=O)NCc2cccc(OC)c2)on1 (centres undefined)
994 s | Cc1cccc(NC(=O)Nc2ccc3c(c2)CCN3S(=O)(=O)c2ccccc2)c1
753 s | Cc1noc(C)c1CNC(=O)c1ccc2ncccc2c1
1010 s | O=C(NCCCCCCCCNC(=O)c1cccc2ccccc12)c1cccc2ccccc12
835 s | CCOC(=O)c1c(S(=O)(=O)N2CCC(C(=O)NCc3ccc(F)cc3)CC2)c(C)n(CC)c1C
804 s | Cc1ccc(C(C)NC(=O)CN2C(=O)NC3(CCCCC3)C2=O)cc1 (centres undefined)
691 s | COC(=O)C1=CC(=O)N2CCN=C2S1
1040 s | CCOc1ccccc1NC(=O)N1CCC(c2cnn(-c3ccccc3)c2)CC1
815 s | COCCN(Cc1ccc(F)cc1)Cc1cc(=O)c2cc(F)ccc2[nH]1
1050 s | COc1ccc(N2CC(c3noc(-c4cc(Cl)ccc4F)n3)CC2=O)cc1 (centres undefined)
848 s | Cc1ccc(NC(=O)Cn2c(=O)n(-c3ccccc3)c3ncccc32)c(C)c1
937 s | O=C(NC1CCCC1)c1csc(-c2ccc(N3CCCCC3)nc2)n1
